SMILES strings stand for the structures. Like-named read-outs stand apart in the source and are kept apart here.

Results on eight compounds are retold here after patent US8207154B2, “Catatonic bacteriochlorophyll derivatives” (Yeda Research and Development Co., Ltd., priority 2005, dated 2012).

In this assay the test system is H5V cells. The experiment in a line: Phototoxicity assay (PDT efficacy at two incubation times), neutral red survival. Format: cell-based, mouse. Particulars: then 10 min illumination, 12 J/cm^2. The procedure:
H5V cells (40×10^3/well) were cultured in 96-well plates for 24 h to ˜80% confluence. To determine phototoxicity, the culture medium was replaced with 100 μl/well medium, in the absence or presence of 10^−8 to 10^−6 M sensitizer, and incubated in the dark for 15 min or 3 h in the culture incubator. The plates (PDT group) were then placed in the light field at room temperature and illuminated from the bottom for 10 min (800>λ>650 nm, 12 J/cm^2). After illumination, the medium was changed to fresh culture medium. The cultures were then placed in the culture incubator and cell survival was determined 24 h later, using the neutral red survival assay described below.
Following 24 h post PDT the culture medium in the wells was replaced with 100 μl fresh medium containing 40 μg/ml neutral red. The plate was incubated for 1.5 h in a dark culture incubator. The medium was aspirated and the cells washed with 100 μl of solution containing 1% CaCl2 and 0.5% formaldehyde, which removes the unincorporated dye and fixes the cells to the substratum. The dye was then extracted from the cells into the supernatant upon addition of 100 μl 1% glacial acetic acid in 50% ethanol. After 1-2 min at room temperature, the optical density of the wells was determined in a microplate spectrophotometer using a 570 nm filter. After subtraction of assay blanks, net optical density was computed as the average value of triplicate determinations. Cell survival was calculated as the percent of the dye accumulated in the untreated control. To determine cell survival data was plotted against sensitizer concentration. These curves were then used to calculated LD50 values.
Following synthesis, the compounds described in the Examples 23 to 75 above were purified, divided into equal aliquots and lyophilized for storage (desiccated at −20° C.). The exact material content was determined by HPLC-diode array detection, and the PDT efficacy was evaluated at two incubation times as described in the experimental section.

Where [1] appears, read: 15 min incubation in the dark, read-out: IC50 15 min.
Where [2] appears, read: 3 h incubation in the dark, read-out: IC50 3 hours.

Take `CC(=O)[O-].CC(=O)[O-].CC[C@H]1C2=NC(=Cc3c(C(C)=O)c(C)c4[n]3[Pd][n]3c(c(C)c(C(=O)NCC[N+](C)(C)C)c3=C(CC(=O)OC)C3=NC(=C4)[C@@H](C)[C@@H]3CCC(=O)NCC[N+](C)(C)C)=C2)[C@@H]1C` [Compound 33, Palladium 3^1-oxo-15-methoxycarbonylmethyl-Rhodobacteriochlorin-13^1, 17^3-di(2-N^3-trimethylammoniumethyl)amide diacetate salt]: the IC50 amounted to 750 nM under setting [1] and 450 nM under setting [2].
The corresponding values for `CC[C@H]1C2=NC(=Cc3c(C(C)=O)c(C)c4[n]3[Pd][n]3c(c(C)c(C(=O)NCCCN)c3=C(CC(=O)OC)C3=NC(=C4)[C@@H](C)[C@@H]3CCC(=O)NCCCN)=C2)[C@@H]1C` [Compound 34, Palladium 3^1-oxo-15-methoxycarbonylmethyl-Rhodobacteriochlorin-13^1, 17^3-di(3-aminopropyl)amide] are 480 nM and 200 nM.
In the same order, the values of `CC[C@H]1C2=NC(=Cc3c(C(C)=O)c(C)c4[n]3[Pd][n]3c(c(C)c(C(=O)NCCCCN)c3=C(CC(=O)OC)C3=NC(=C4)[C@@H](C)[C@@H]3CCC(=O)NCCCCN)=C2)[C@@H]1C` [Compound 35, Palladium 3^1-oxo-15-methoxycarbonylmethyl-Rhodobacteriochlorin-13^1, 17^3-di(4-aminobutyl)amide] are 1230 nM and 210 nM.
The corresponding values for `CC[C@H]1C2=NC(=Cc3c(C(C)=O)c(C)c4[n]3[Pd][n]3c(c(C)c(C(=O)NCCN(C)C)c3=C(CC(=O)OC)C3=NC(=C4)[C@@H](C)[C@@H]3CCC(=O)NCCN(C)C)=C2)[C@@H]1C` [Compound 36, Palladium 3^1-oxo-15-methoxycarbonylmethyl-Rhodobacteriochlorin-13^1, 17^3-di(2-N^2-dimethylaminoethyl)amide] are 370 nM and 150 nM.
`CC[C@H]1C2=NC(=Cc3c(C(C)=O)c(C)c4[n]3[Pd][n]3c(c(C)c(C(=O)NCCCN(C)C)c3=C(CC(=O)OC)C3=NC(=C4)[C@@H](C)[C@@H]3CCC(=O)NCCCN(C)C)=C2)[C@@H]1C` [Compound 37, Palladium 3^1-oxo-15-methoxycarbonylmethyl-Rhodobacteriochlorin-13^1, 17^3-di(3-N^2-dimethylaminopropyl)amide]: the IC50 is, setting by setting: under setting [1], 750 nM; under setting [2], 210 nM.
In the same order, the values of `CC[C@H]1C2=NC(=Cc3c(C(C)=O)c(C)c4[n]3[Pd][n]3c(c(C)c(C(=O)NCCNCCN)c3=C(CC(=O)OC)C3=NC(=C4)[C@@H](C)[C@@H]3CCC(=O)NCCNCCN)=C2)[C@@H]1C` [Compound 38, Palladium 3^1-oxo-15-methoxycarbonylmethyl-Rhodobacteriochlorin-13^1, 17^3-di-(2-[(2-aminoethyl)amino]ethyl)amide] are 440 nM and 160 nM.
In the same order, the values of `CCC1C2=Cc3c(C)c(C(=O)NCCNCCN(CC)CC)c4[n]3[Pd][n]3c(c(C)c(C(C)=O)c3=CC(=N2)C1C)=CC1=NC(=C4CC(=O)OC)C(CCC(=O)NCCNCCN(CC)CC)C1C` (stereo not shown) [Compound 39, Palladium 3^1-oxo-15-methoxycarbonylmethyl-Rhodobacteriochlorin-13^1,17^3-di-(2-[(2-N^2-diethylaminoethyl)amino]ethyl) amide] are 2440 nM and 1100 nM.
The corresponding values for `CC[C@H]1C2=NC(=Cc3c(C(C)=O)c(C)c4[n]3[Pd][n]3c(c(C)c(C(=O)NCCN5CCOCC5)c3=C(CC(=O)OC)C3=NC(=C4)[C@@H](C)[C@@H]3CCC(=O)NCCN3CCOCC3)=C2)[C@@H]1C` [Compound 40, Palladium 3^1-oxo-15-methoxycarbonylmethyl-Rhodobacteriochlorin-13^1, 17^3-di(2-morpholino-N-ethyl)amide] are 700 nM and 350 nM.
